Assay results: patent US20250019377A1 (JACOBIO PHARMACEUTICALS CO., LTD, priority 2021, published 2025)

Experiments:
[1] = target: T1, K-Ras G12V (Homo sapiens, UniProt P01116, G12V); test: SOS1 catalyzed nucleotide exchange assay (GDP form K-Ras), K-Ras G12V; settings: read-out: K-Ras G12V GDP Biochemical Activity (IC50)
[2] = tested on: p-ERK in AGS cells (K-Ras G12D); test: Phospho-ERK1/2(THR202/TYR204) HTRF assay, AGS; format: cell-based; settings: Homo sapiens, 2 h, 2 hours incubation
[3] = tested on: p-ERK in SW620 cells (K-Ras G12V); test: Phospho-ERK1/2(THR202/TYR204) HTRF assay, SW620; format: cell-based; settings: Homo sapiens, SW-620, 2 h, 2 hours incubation
[4] = tested on: AGS cells (K-Ras G12D); test: 2D cell growth inhibition assay, AGS; format: cell-based; settings: Homo sapiens, 144 h, 6 days, absolute IC50
[5] = tested on: AsPC-1 cells (K-Ras G12D); test: 2D cell growth inhibition assay, AsPC-1; format: cell-based; settings: Homo sapiens, ASPC1, 144 h, AsPC-1, K-Ras G12D, 6 days, absolute IC50
[6] = tested on: SW620 cells (K-Ras G12V); test: 2D cell growth inhibition assay, SW620; format: cell-based; settings: Homo sapiens, SW-620, 144 h, 6 days, absolute IC50
[7] = target: T1, K-Ras G12V; test: biochemical

T1 sequence (P01116 1-169 isoform P01116-2 G12V): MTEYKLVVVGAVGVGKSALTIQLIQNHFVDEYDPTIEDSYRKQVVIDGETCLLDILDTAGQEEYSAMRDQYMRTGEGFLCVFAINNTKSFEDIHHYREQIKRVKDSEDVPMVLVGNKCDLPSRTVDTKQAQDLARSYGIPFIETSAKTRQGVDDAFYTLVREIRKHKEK

Structure (SMILES) | IC50 [1] | IC50 [2] | IC50 [3] | IC50 [4] | IC50 [5] | IC50 [6] | IC50 [7]
C#Cc1c(F)ccc2cc(O)cc(-c3nc(O)c4c(N5CCCOCC5)nc(OC[C@@]56CCCN5C[C@H](F)C6)nc4c3F)c12 [Compound 123, 7-(8-ethynyl-7-fluoro-3-hydroxynaphthalen-1-yl)-8-fluoro-2-(((2R,7aS)-2-fluoro-tetrahydro-1H-pyrrolizin-7a(5H)-yl)methoxy)-4-(1,4-oxazepan-4-yl)pyrido[4,3-d] pyrimidin-5-ol] | 2.49 nM | 517 nM | 803 nM | 8.51 nM | 2800 nM | 525 nM | 156 nM
C#Cc1c(F)ccc2cc(O)cc(-c3ncc4c(N5CCCOCC5)nc(OC[C@H]5CCCN5C)nc4c3F)c12 [Compound 2, (R)-5-ethynyl-6-fluoro-4-(8-fluoro-2-((1-methylpyrrolidin-2-yl)methoxy)-4-(1,4-oxazepan-4-yl)pyrido[4,3-d]pyrimidin-7-yl)naphthalen-2-ol] | 4.99 nM |  |  | 178 nM | 293 nM | 182 nM | 207 nM
C#Cc1c(F)ccc2cc(O)cc(-c3ncc4c(N5CCCO[C@H]6C[C@H]65)nc(OC[C@@]56CCCN5C[C@H](F)C6)nc4c3F)c12 (single isomer, unassigned) [Compound 7A] |  |  |  | 175 nM | 1510 nM | 846 nM | 
C#Cc1c(F)ccc2cc(O)cc(-c3ncc4c(N5CCOCC(C)(C)C5)nc(OC[C@@]56CCCN5C[C@H](F)C6)nc4c3F)c12 [Compound 102, 4-(4-(6,6-dimethyl-1,4-oxazepan-4-yl)-8-fluoro-2-(((2R,7aS)-2-fluorotetrahydro-1H-pyrrolizin-7a(5H)-yl)methoxy)pyrido[4,3-d]pyrimidin-7-yl)-5-ethynyl-6-fluoro-naphthalen-2-ol] |  | 192 nM | 47.1 nM |  |  |  | 
C#Cc1c(F)ccc2cc(O)cc(-c3ncc4c(N5CCOCC6(CC6)C5)nc(OC[C@@]56CCCN5C[C@H](F)C6)nc4c3F)c12 [Compound 103, 5-ethynyl-6-fluoro-4-(8-fluoro-2-(((2R,7aS)-2-fluorotetrahydro-1H-pyrrolizin-7a(5H)-yl)methoxy)-4-(5-oxa-8-azaspiro[2.6]nonan-8-yl)pyrido[4,3-d]pyrimidin-7-yl) naphthalen-2-ol] |  |  | 187 nM |  |  | 109 nM | 
C#Cc1c(F)ccc2cc(O)cc(-c3ncc4c(N5CCCOCC56CC6)nc(OC[C@@]56CCCN5C[C@H](F)C6)nc4c3F)c12 [Compound 50, 5-ethynyl-6-fluoro-4-(8-fluoro-2-(((2R,7aS)-2-fluorotetrahydro-1H-pyrrolizin-7a(5H)-yl)methoxy)-4-(8-oxa-4-azaspiro[2.6]nonan-4-yl)pyrido[4,3-d]pyrimidin-7-yl)naphthalen-2-ol trifluoroacetic acid] |  |  | 121 nM |  |  |  | 
C#Cc1c(F)ccc2cc(O)cc(-c3ncc4c(N5[C@H]6COC[C@H](C)[C@@H]5C6)nc(OC[C@@]56CCCN5C[C@H](F)C6)nc4c3F)c12 [Compound 110, 5-ethynyl-6-fluoro-4-(8-fluoro-2-(((2R,7aS)-2-fluorotetrahydro-1H-pyrrolizin-7a(5H)-yl)methoxy)-4-((1R,5R,6S)-5-methyl-3-oxa-7-azabicyclo[4.1.1]octan-7-yl)pyrido [4,3-d]pyrimidin-7-yl)naphthalen-2-ol] | 6.63 nM | 44.3 nM | 62.2 nM |  |  | 81 nM | > 1000 nM
C#Cc1c(F)ccc2cc(O)cc(-c3ncc4c(N5CC6COCC5C6)nc(OC[C@@]56CCCN5C[C@H](F)C6)nc4c3F)c12 (stereo partly drawn) [Compound 94, 4-(4-(3-oxa-6-azabicyclo[3.2.1]octan-6-yl)-8-fluoro-2-(((2R,7aS)-2-fluorotetrahydro-1H-pyrrolizin-7a(5H)-yl)methoxy)pyrido [4,3-d]pyrimidin-7-yl)-5-ethynyl-6-fluoro naphthalen-2-ol] |  |  | 275 nM |  |  |  | 
Oc1cc(-c2ncc3c(N4CCCOCC4)nc(OC[C@@]45CCCN4C[C@H](F)C5)nc3c2F)c2ccccc2c1 [Compound 118, 4-(8-fluoro-2-(((2R,7aS)-2-fluorotetrahydro-1H-pyrrolizin-7a(5H)-yl)methoxy)-4-(1,4-oxazepan-4-yl)pyrido[4,3-d]pyrimidin-7-yl)naphthalen-2-ol] |  | 113 nM | 110 nM | 184 nM | 1420 nM | 343 nM | 

Second part, the molecule after the results:

IC50 [1] | IC50 [2] | IC50 [3] | IC50 [4] | IC50 [5] | IC50 [6] | IC50 [7] | Structure (SMILES)
1.47 nM | 2.31 nM | 19.4 nM | 18.6 nM | 133 nM | 39.5 nM | 35.7 nM | C#Cc1c(F)ccc2cc(O)cc(-c3ncc4c(N5CCCOCC5C)nc(OC[C@@]56CCCN5C[C@H](F)C6)nc4c3F)c12 (mixture of isomers) [Compound 16, 5-ethynyl-6-fluoro-4-(8-fluoro-2-(((2R,7aS)-2-fluorotetrahydro-1H-pyrrolizin-7a(5H)-yl)methoxy)-4-(3-methyl-1,4-oxazepan-4-yl)pyrido[4,3-d]pyrimidin-7-yl)naphthalen-2-ol trifluoroacetic acid]
 | 101 nM | 21.8 nM | 248 nM | 1850 nM | 76.3 nM |  | C#Cc1c(F)ccc2cc(O)cc(-c3ncc4c(N5CCOCCC56CC6)nc(OC[C@@]56CCCN5C[C@H](F)C6)nc4c3F)c12 [Compound 43, 5-ethynyl-6-fluoro-4-(8-fluoro-2-(((2R,7aS)-2-fluorotetrahydro-1H-pyrrolizin-7a(5H)-yl)methoxy)-4-(7-oxa-4-azaspiro[2.6]nonan-4-yl)pyrido[4,3-d]pyrimidin-7-yl)naphthalen-2-ol trifluoroacetic acid]
 | 1.5 nM | 5.98 nM | 3.41 nM | 32.8 nM | 27.2 nM |  | C#Cc1c(F)ccc2cc(O)cc(-c3ncc4c(N5CCOCC(COC)C5)nc(OC[C@@]56CCCN5C[C@H](F)C6)nc4c3F)c12 (stereo partly shown) [Compound 87]
 | 3.3 nM | 7.74 nM | 8.22 nM | 53.6 nM | 4.62 nM |  | C#Cc1c(F)c(F)cc2cc(O)cc(-c3ncc4c(N5CCCOCC5)nc(OC[C@@]56CCCN5C[C@H](F)C6)nc4c3F)c12 [Compound 29]
 | 23.1 nM | 4.39 nM | 42.4 nM | 381 nM | 15.3 nM |  | C#Cc1c(F)ccc2cc(O)cc(-c3ncc4c(N5CCOCC(=C)C5)nc(OC[C@@]56CCCN5C[C@H](F)C6)nc4c3F)c12 [Compound 24, 5-ethynyl-6-fluoro-4-(8-fluoro-2-(((2R,7aS)-2-fluorotetrahydro-1H-pyrrolizin-7a(5H)-yl)methoxy)-4-(6-methylene-1,4-oxazepan-4-yl)pyrido[4,3-d]pyrimidin-7-yl)naphthalen-2-ol]
 | 66.1 nM | 40.2 nM | 504 nM | 885 nM | 185 nM |  | C#Cc1c(F)ccc2c(F)c(O)cc(-c3ncc4c(N5CCCOCC5)nc(OC[C@@]56CCCN5C[C@H](F)C6)nc4c3F)c12 [Compound 107, 5-ethynyl-1,6-difluoro-4-(8-fluoro-2-(((2R,7aS)-2-fluorotetrahydro-1H-pyrrolizin-7a(5H)-yl)methoxy)-4-(1,4-oxazepan-4-yl)pyrido[4,3-d]pyrimidin-7-yl)naphthalen-2-ol]
 | 2.04 nM | 3.97 nM |  |  |  |  | C#Cc1c(F)ccc2cc(O)cc(-c3ncc4c(N5CCOCC(=O)C5)nc(OC[C@@]56CCCN5C[C@H](F)C6)nc4c3F)c12 [Compound 30, 4-(7-(8-ethynyl-7-fluoro-3-hydroxynaphthalen-1-yl)-8-fluoro-2-(((2R,7aS)-2-fluorotetrahydro-1H-pyrrolizin-7a(5H)-yl)methoxy)pyrido[4,3-d]pyrimidin-4-yl)-1,4-oxazepan-6-one trifluoroacetic acid]
 | 46.5 nM | 27.9 nM | 133 nM | 237 nM | 163 nM |  | C#Cc1c(F)ccc2cccc(-c3ncc4c(N5CCCOC6CC65)nc(OC[C@@]56CCCN5C[C@H](F)C6)nc4c3F)c12 (stereo partly drawn) [Compound 115, 6-(7-(8-ethynyl-7-fluoronaphthalen-1-yl)-8-fluoro-2-(((2R,7aS)-2-fluorotetrahydro-1H-pyrrolizin-7a(5H)-yl)methoxy)pyrido [4,3-d]pyrimidin-4-yl)-2-oxa-6-azabicyclo [5.1.0]octane]
 | 66.2 nM | 15.4 nM | 186 nM | 586 nM | 171 nM |  | C#Cc1c(F)ccc2cc(O)cc(-c3ncc4c(N5CCCOCC5)nc(OCC56CCCN5CC(F)(F)C6)nc4c3F)c12 (stereo not shown) [Compound 9, 4-(2-((2,2-difluorotetrahydro-1H-pyrrolizin-7a(5H)-yl)methoxy)-8-fluoro-4-(1,4-oxazepan-4-yl)pyrido[4,3-d]pyrimidin-7-yl)-5-ethynyl-6-fluoronaphthalen-2-ol]
 | 2.93 nM | 13.8 nM | 15.5 nM | 226 nM | 116 nM |  | C#Cc1cccc2cc(O)cc(-c3ncc4c(N5CCCOCC5)nc(OC[C@@]56CCCN5C[C@H](F)C6)nc4c3F)c12 [Compound 82]
 | 39.4 nM | 21.5 nM | 98.1 nM | 681 nM | 66.4 nM |  | C#Cc1c(F)ccc2cc(O)cc(-c3ncc4c(N5CC(OC)COCC5C)nc(OC[C@@]56CCCN5C[C@H](F)C6)nc4c3F)c12 (stereo partly drawn) [Compound 106, 5-ethynyl-6-fluoro-4-(8-fluoro-2-(((2R,7aS)-2-fluorotetrahydro-1H-pyrrolizin-7a(5H)-yl)methoxy)-4-(6-methoxy-3-methyl-1,4-oxazepan-4-yl)pyrido[4,3-d]pyrimidin-7-yl)naphthalen-2-ol]
